In patent publication US12201601B2, “Treatment for obesity” (Axsome Malta Ltd., priority 2013, dated 2025):

Legend:
[1] = 52-week repeated dose oral toxicity study with 13-week recovery in beagle dogs: body weight; assay type: in vivo; details: for Body weight variation during the treatment-free period only (value in brackets, Table 1): Day 455
Experimental: (§1) A 52-week repeated dose oral toxicity study with 13-week recovery was carried out in beagle dogs for R228060 (Formula Ib). Body weight and food consumption were monitored throughout the study (see Table 1).

[2] = 6-month repeated dose oral toxicity study with 3-month recovery in rats: body weight; assay type: in vivo; details: for Body weight gain (in words) / Body weight (in words): p<0.05-0.001; for Body weight after cessation of treatment (in words): recovery period; for Decreases in body weight gain at the end of the treatment period: conclusion over dose levels
Experimental: (§2) A 6-month repeated dose oral toxicity study with 3-month recovery was carried out in rats for R228060 (Formula Ib). Body weight and food consumption were monitored throughout the study.

[3] = 52-week repeated dose oral toxicity study in beagle dogs: food consumption; assay type: in vivo
Experimental: as §1

[4] = 6-month repeated dose oral toxicity study in rats: food consumption; assay type: in vivo
Experimental: as §2

[5] = 6-week randomized, double blind, active and placebo-controlled study in adult subjects with major depressive disorder: body weight; assay type: in vivo, Humans; details: for Mean weight loss / Subjects with weight Decrease ≥7% / Subjects with weight Increase <7% / Subjects with weight Increase ≥7% / Subjects with weight No change/decrease <7% / Weight, Change from Baseline, Mean / Weight, Change from Baseline, Median: baseline to endpoint; for Weight, End point, Mean / Weight, End point, Median: 6-week study
Experimental: A 6-week randomized, double blind, parallel group, active and placebo-controlled study was carried out to assess the efficacy of R228060 in adult subjects with major depressive disorder (MDD). Body weight was monitored throughout the study.

[6] = place preference model
[7] = classic rat self-administration model
[8] = nonclinical studies in mice, rats, and dogs: body weight and food consumption; assay type: in vivo
[9] = female rats, 600/450 mg HCl-salt/kg
[10] = male rats, 600/450 mg HCl-salt/kg

NC(=O)OC[C@H](N)Cc1ccccc1 [Formula R228060, (R)-(beta-amino-benzenepropyl) carbamate]
Body weight change (Table 1) ([1]; dogs, 10 mg/kg bw/day, females, Day 4): −6%
Body weight change (Table 1) ([1]; dogs, 10 mg/kg bw/day, females, Day 21): −2%
Body weight change (Table 1) ([1]; dogs, 10 mg/kg bw/day, females, Day 182): +26%
Body weight change (Table 1) ([1]; dogs, 10 mg/kg bw/day, females, Day 364): +25%
Body weight change (Table 1) ([1]; dogs, 10 mg/kg bw/day, males, Day 4): −1%
Body weight change (Table 1) ([1]; dogs, 10 mg/kg bw/day, males, Day 21): 0%
Body weight change (Table 1) ([1]; dogs, 10 mg/kg bw/day, males, Day 182): +22%
Body weight change (Table 1) ([1]; dogs, 10 mg/kg bw/day, males, Day 364): +32%
Body weight change (Table 1) ([1]; dogs, 25 mg/kg bw/day, females, Day 4): −7%
Body weight change (Table 1) ([1]; dogs, 25 mg/kg bw/day, females, Day 21): −4%
Body weight change (Table 1) ([1]; dogs, 25 mg/kg bw/day, females, Day 182): +16%
Body weight change (Table 1) ([1]; dogs, 25 mg/kg bw/day, females, Day 364): +26%
Body weight change (Table 1) ([1]; dogs, 25 mg/kg bw/day, males, Day 4): −4%
Body weight change (Table 1) ([1]; dogs, 25 mg/kg bw/day, males, Day 21): −4%
Body weight change (Table 1) ([1]; dogs, 25 mg/kg bw/day, males, Day 182): +71%
Body weight change (Table 1) ([1]; dogs, 25 mg/kg bw/day, males, Day 364): +19%
Body weight change (Table 1) ([1]; dogs, 50 mg/kg bw/day, females, Day 4): −9%
Body weight change (Table 1) ([1]; dogs, 50 mg/kg bw/day, females, Day 21): −12%
Body weight change (Table 1) ([1]; dogs, 50 mg/kg bw/day, females, Day 182): +11%
Body weight change (Table 1) ([1]; dogs, 50 mg/kg bw/day, females, Day 364): +9%
Body weight variation during the treatment-free period only (value in brackets, Table 1) ([1]; dogs, 50 mg/kg bw/day, females): +26% (+26%)
Body weight change (Table 1) ([1]; dogs, 50 mg/kg bw/day, females, Day 455 (end of treatment-free period)): +26% (+26%)
Body weight change (Table 1) ([1]; dogs, 50 mg/kg bw/day, males, Day 4): −9%
Body weight change (Table 1) ([1]; dogs, 50 mg/kg bw/day, males, Day 21): −12%
Body weight change (Table 1) ([1]; dogs, 50 mg/kg bw/day, males, Day 182): +7%
Body weight change (Table 1) ([1]; dogs, 50 mg/kg bw/day, males, Day 364): +9%
Body weight variation during the treatment-free period only (value in brackets, Table 1) ([1]; dogs, 50 mg/kg bw/day, males): +6%
Body weight change (Table 1) ([1]; dogs, 50 mg/kg bw/day, males, Day 455 (end of treatment-free period)): +12%
Mean body weight gain compared to control (in words) ([1]; dogs, treated groups, days 182 and 364): lower does-relative mean body weight gain
Day on which weight returned to the initial weight ([1]; female dogs, 10 mg/kg bw/day): 28 days
Mean body weight loss ([1]; female dogs, 10 mg/kg bw/day, first 4 days of treatment): 0.4 kg
Day on which weight returned to the initial weight ([1]; female dogs, 25 mg/kg bw/day): 42 days
Mean body weight loss ([1]; female dogs, 25 mg/kg bw/day, first 4 days of treatment): 0.5 kg
Mean body weight loss ([1]; female dogs, 50 mg/kg bw/day, first 4 days of treatment): 0.7 kg
Body weight gain during the treatment-free period compared to controls (in words) ([1]; group 4 females): higher body weight gain
Body weight gain during the treatment-free period compared to controls (in words) ([1]; group 4 males): only slightly higher
Day on which weight returned to the initial weight ([1]; high dose female group (50 mg/kg bw/day)): 77 days
Mean body weight loss ([1]; high dose female group (50 mg/kg bw/day), day 21): 0.8 kg
Day on which weights returned to the initial values ([1]; high dose male group (50 mg/kg bw/day)): 126 days
Mean body weight loss ([1]; high dose male group (50 mg/kg bw/day), day 21): 0.8 kg
Day on which weights returned to initial weights ([1]; male dogs, 25 mg/kg bw/day): 35 days
Mean body weight loss ([1]; male dogs, 25 mg/kg bw/day, first 4 days of treatment): 0.3 kg
Mean body weight loss ([1]; male dogs, 50 mg/kg bw/day, first 4 days of treatment): 0.7 kg
Body weight and body weight gain (in words) ([2]; female rats, 35 mg HCl-salt/kg body weight/day oral for 6 consecutive months): did not adversely affect body weight and body weight gain
Body weight gain decreased compared to the control group ([2]; female rats, 300 mg HCl-salt/kg body weight/day oral, week 13): 15%
Body weight gain decreased compared to the control group ([2]; female rats, 300 mg HCl-salt/kg body weight/day oral, week 26): 23%
Body weight gain (in words) ([2]; female rats, 300 mg HCl-salt/kg body weight/day, especially towards end of dosing period): moderate to pronounced decrease
Body weight (in words) ([2]; female rats, 300 mg HCl-salt/kg body weight/day): moderately decreased body weight
Remaining body weight difference at the end of the recovery period compared to control animals (in words) [2, 9]: only slightly lower
Body weight gain decreased ([2]; female rats, 600/450 mg HCl-salt/kg body weight/day oral, week 13): 18%
Body weight gain decreased ([2]; female rats, 600/450 mg HCl-salt/kg body weight/day oral, week 26): 21%
Body weight gain (in words) ([2]; female rats, 600/450 mg HCl-salt/kg body weight/day, from first week of dosing): moderate to pronounced decrease in body weight gain
Body weight (in words) ([2]; female rats, 600/450 mg HCl-salt/kg body weight/day): moderately decreased body weight
Body weight after cessation of treatment (in words) [2, 9]: partial regain of their normal body weight
Decreases in body weight gain at the end of the treatment period ([2]; female rats): ≤ 21%
Body weight gain decreased ([2]; male rats, 35 mg HCl-salt/kg body weight/day oral, week 13, vs control): 6%
Body weight gain decreased ([2]; male rats, 35 mg HCl-salt/kg body weight/day oral, week 26, vs control): 5%
Body weight and weight gain (in words) ([2]; male rats, 35 mg HCl-salt/kg body weight/day, significant weeks 8-12 (gain) and 10-12 (weight), p<0.05): slightly lower compared to control rats
Body weight gain decreased ([2]; male rats, 300 mg HCl-salt/kg body weight/day oral, week 13): 27%
Body weight gain decreased ([2]; male rats, 300 mg HCl-salt/kg body weight/day oral, week 26): 24%
Body weight and body weight gain (in words) ([2]; male rats, 300 mg HCl-salt/kg body weight/day, from first week of dosing, p<0.001): pronounced decrease in body weight and body weight gain
Body weight at the end of the three month recovery period compared to control animals (in words) [2, 10]: still moderately lower
Body weight gain decreased ([2]; male rats, 600/450 mg HCl-salt/kg body weight/day oral, week 13): 33%
Body weight gain decreased ([2]; male rats, 600/450 mg HCl-salt/kg body weight/day oral, week 26): 32%
Body weight and body weight gain (in words) ([2]; male rats, 600/450 mg HCl-salt/kg body weight/day, from week 1 onwards, p<0.001): pronounced decrease in body weight and body weight gain
Body weight after cessation of treatment (in words) [2, 10]: partial regain of their normal (control) body weight
Decreases in body weight gain at the end of the treatment period ([2]; male rats): up to 32%
Body weights and body weight gains (conclusion in words) ([2]; rats, starting at 35 mg HCl-salt/kg body weight/day for males and 300 for females): dose-related decrease
Food consumption (in words) ([3]; all female dogs, 50 mg/kg bw/day, first week of treatment): lower food consumption, which was marked for 3/6 animals
Food consumption during the treatment-free period (in words) ([3]; dogs, any animal): No effect on food consumption
Lower food consumption ([3]; female dogs, 25 mg/kg bw/day, first week of treatment): −25 to −50 % of the daily portion
Reduced food consumption ([3]; male dogs, 50 mg/kg bw/day, mainly first week of treatment): about −50 % of the daily portion
Reduced food consumption compared to control ([3]; one male dog, 25 mg/kg bw/day, first week of treatment): about −40%
Slightly lower food consumption ([3]; three out of four female dogs, 10 mg/kg bw/day, first week of treatment): about −25 % of the daily portion
Statistically significant increases in food consumption (assessment in words) ([4]; female rats, 35, 300 and 600/450 mg HCl-salt/kg body weight level): toxicologically irrelevant
Food consumption (significance, in words) ([4]; rats, 300 and 600/450 mg HCl-salt/kg body weight level): statistically significant decreases
Food consumption (in words) ([4]; rats, both sexes, first weeks of dosing, starting at 35 mg HCl-salt/kg body weight/day for males and 300 for females): dose-related decrease in food consumption
Weight relative to placebo treated patients (in words) ([5]; 6-week clinical study in major depressive disorder patients): dose-related decrease in weight relative to placebo treated patients
Number of subjects with a decrease in weight of 7% or more ([5]; 200-mg group): 1 subjects
Percentage of subjects with a decrease in weight of 7% or more ([5]; 200-mg group): 0.9%
Mean weight loss ([5]; 200-mg group): 0.6 kg
Number of subjects with a decrease in weight of 7% or more ([5]; 400-mg group): 3 subjects
Percentage of subjects with a decrease in weight of 7% or more ([5]; 400-mg group): 2.5%
Mean weight loss ([5]; 400-mg group): 0.9 kg
Mean change from baseline to endpoint in BMI ([5]; R228060 200 mg): −0.2 kg/m^2
Subjects with weight Decrease ≥7% ([5]; R228060 200 mg (N = 116)): 1 (0.9) n (%)
Subjects with weight Increase <7% ([5]; R228060 200 mg (N = 116)): 39 (33.6) n (%)
Subjects with weight Increase ≥7% ([5]; R228060 200 mg (N = 116)): 1 (0.9) n (%)
Subjects with weight No change/decrease <7% ([5]; R228060 200 mg (N = 116)): 75 (64.7) n (%)
Weight, End point, Mean ([5]; R228060 200 mg group): 85.4 kg
Weight, End point, Median ([5]; R228060 200 mg group): 83.4 kg
Weight, Change from Baseline, Mean ([5]; R228060 200 mg group): -0.6 kg
Weight, Change from Baseline, Median ([5]; R228060 200 mg group): -0.5 kg
Mean change from baseline to endpoint in BMI ([5]; R228060 400 mg): −0.3 kg/m^2
Subjects with weight Decrease ≥7% ([5]; R228060 400 mg (N = 120)): 3 (2.5) n (%)
Subjects with weight Increase <7% ([5]; R228060 400 mg (N = 120)): 27 (22.5) n (%)
Subjects with weight Increase ≥7% ([5]; R228060 400 mg (N = 120)): 0 n (%)
Subjects with weight No change/decrease <7% ([5]; R228060 400 mg (N = 120)): 90 (75.0) n (%)
Weight, End point, Mean ([5]; R228060 400 mg group): 83.2 kg
Weight, End point, Median ([5]; R228060 400 mg group): 78.9 kg
Weight, Change from Baseline, Mean ([5]; R228060 400 mg group): -0.9 kg
Weight, Change from Baseline, Median ([5]; R228060 400 mg group): -0.9 kg
Reporting of anorexia (in words) ([5]; compound-treated groups, 6-week clinical study): increase in reporting of anorexia
Abuse potential: rewarding properties (in words) [6]: no significant rewarding properties
Abuse potential: reinforcing properties (in words) [7]: not reinforcing
Body weight, body weight gain and food consumption (in words) [8]: decreases in body weight and/or body weight gain as well as reductions in food consumption
